Reference: patent publication US20200222418A1, “USE OF PHENOTHIAZINE DERIVATIVE IN THE TREATMENT OF INFECTION CAUSED BY BACTERIA CARRYING TYPE IV PILI” (priority 2017, published 2020)

Assays:
[1] = test system: HDMECs infected with N. meningitidis Nm2C4.3; assay: Basement membrane (Gelatin-FITC matrix) degradation by infected endothelial cells; assay type: cell-based, human; conditions: 150 μg/ml Gentamicin, 24 h post-infection
Description: (A) Experimental procedure: HBMECs grown on a fluorescent matrix (Gelatin-Fitc) were colonized by N. meningitidis for 6 h. They were then treated with 150 μg/ml gentamicin for 1 h, then 15 min with Trifluoperazine (50 μM) (or solvent alone as control) and incubated for further 15 h in the presence of 150 μg/ml gentamicin. (B) Fluorescence microscopy was used to visualize cells stained with labelled phalloidin and the fluorescent matrix. The presence of dark zones corresponds to zones of matrix degradation. (C) Quantification of the percentage of matrix degradation, using Image J software.
Plastic coverslips (13 mm diameter) (Nalgen #174950) were washed in ethanol 70%, dried then coated with poly-L-lysine 1 mg/ml for 20 min at room temperature. After one wash in sterile PBS, 0.5% Glutaraldehyde was added for 15 min at room temperature. After three washes in PBS, Gelatin-FITC (0.2 mg/ml Invitrogen #G13187) was added for 10 minutes at room temperature in the dark. Coverslip were then washed with sterile PBS and treated with 5 mg/ml sodium borohydride for 3 min. After three washes in sterile PBS, 10^5 HDMECs (PromoCell #C-12210) were seeded per well in their PromoCell culture medium and incubated overnight at 37° C. 5% CO2. The day after, cells were infected with N. meningitidis Nm2C4.3, as above described. […] Quantifications were performed using ImageJ software (NIH).

[2] = test system: N. meningitidis 2C4.3 wild type strain type IV pili; assay: Surface expression of type IV pili by transmission electron microscopy, wild type; assay type: cell-based, Neisseria meningitidis; conditions: 50 μM Trifluoperazine for 30 minutes, wild type 2C4.3
Description: N. meningitidis 2C4.3 wild type strain and the isogenic derivative mutant PilT ([…]PiIT) were grown in liquid culture […] electron microscopy. Arrows point at bundles of type IV pili expressed at the bacterial surface.
N. meninigitidis 2C4.3 strain and the isogenic derivative mutant PilT, where the pilT gene was interrupted by an erythromycin-resistance cassette (Pujol et al., 1999), were grown in suspension in DMEM medium supplemented with 10% heat-inactivated fetal calf serum. PilT belongs to a highly conserved protein family homologous to AAA-type motor proteins and is proposed to cause the retraction of type IV pili by disassembling the pilin subunits at the base of the fiber (Morand et al., 2004). […] The effect on bacterial aggregates were visualized over time using a phase-contrast microscope or the bacterial suspensions were fixed in 4% Paraformaldehyde for 10 min, centrifuged at 1000 rpm for 5 minutes and the bacterial pellets washed in PBS. After negative staining with 1% phosphotungstic acid, bacteria were analysed by transmission electron microscopy, using a JEOL 1011 microscope.

[3] = test system: N. meningitidis 2C4.3 PilT mutant type IV pili; assay: Surface expression of type IV pili by transmission electron microscopy, PilT mutant; assay type: cell-based, Neisseria meningitidis; conditions: 50 μM
Description: N. meningitidis 2C4.3 wild type strain and the isogenic derivative mutant PilT ([…]PiIT) were grown in liquid culture at 10^7 CFU/ml for 2 h to form bacterial aggregates and then treated with 50 μM Trifluoperazine for 15 minutes before analysis by transmission electron microscopy. Arrows point at bundles of type IV pili expressed at the bacterial surface.
N. meninigitidis 2C4.3 strain and the isogenic derivative mutant PilT, where the pilT gene was interrupted by an erythromycin-resistance cassette (Pujol et al., 1999), were grown in suspension in DMEM medium supplemented with 10% heat-inactivated fetal calf serum. PilT belongs to a highly conserved protein family homologous to AAA-type motor proteins and is proposed to cause the retraction of type IV pili by disassembling the pilin subunits at the base of the fiber (Morand et al., 2004). After 2 h of growth, Trifluoperazine (or control vehicle) was added at 50 μM for 20 min. The effect on bacterial aggregates were visualized over time using a phase-contrast microscope or the bacterial suspensions were fixed in 4% Paraformaldehyde for 10 min, centrifuged at 1000 rpm for 5 minutes and the bacterial pellets washed in PBS. After negative staining with 1% phosphotungstic acid, bacteria were analysed by transmission electron microscopy, using a JEOL 1011 microscope.

[4] = test system: Nm2C4.3 adhesion to human dermal microvascular endothelial cells (HDMECs); assay: Adhesion of pretreated meningococci to endothelial cells; assay type: cell-based, Neisseria meningitidis; conditions: bacteria pre-treated with 30 μM for 30 minutes
Description: Nm2C4.3 grown in suspension were pretreated in the absence or in the presence of 30 μM Trifluoperazine for 30 minutes before adhesion to human dermal microvascular endothelial cells (HDMECs) for 30 minutes. Infection was allowed to proceed for further 30, 60 or 90 minutes before fixation and immunostaining using anti-Nm2C4.3 antibody and Alexa Fluor 633 Phalloidin. (A) Representative fluorescence microscopy showing bacterial colony (white dots) formed at the surface of the endothelial cells. (B) Quantification of the bacterial colonization was performed using Image J software.

[5] = test system: HBMECs infected with meningococci; assay: PECAM-1 recruitment at bacterial adhesion sites in infected HBMEC; assay type: cell-based, human; conditions: 5 μM for 2 h during infection
Description: (A) Monolayers of HBMECs were non-infected or infected for 2 h with meningococci and the effect on the localisation of the endothelial cell junction proteins PECAM-1 and […]-catenin was analysed by immunofluorescence analysis. Arrows point at PECAM-1 molecules recruited at bacterial adhesion sites (B) HBMECs were infected for 2 h with meningococci in the presence or in the absence of 5 μM Trifluoperazine and the effect on junctional PECAM-1 and on the endothelial cell cytoskeleton remodelling (Ezrin, Actin) was analysed by immunofluorescence analysis. (C) Quantification of Actin and PECAM-1 recruitment at sites of bacterial adhesion was performed using Image J software.
When indicated, HBMECs were grown on Thermanox coverslips coated with gelatin 2% for 2 days to reach confluency. Cells were then infected as above described in the presence or in the absence of 5 μM Trifluoperazine for 2 h. Cells were washed and fixed in 4% paraformaldehyde and immunolabelling was performed with a polyclonal antisera raised anti-Nm2C4.3 strain, anti-human PECAM-1 mouse monoclonal, clone HEC7 (ABCAM ab119339) or rabbit polyclonal 177 raised against PECAM-1, obtained from WA Muller (Northwestern University, Chicago, Ill., US), anti-0 catenin (05-482, UBI), polyclonal antisera raised against Ezrin, Alexa Fluor 633 Phalloidin. […] Quantifications were done using ImageJ software (NIH).

[6] = test system: meningococcal colonization of the human dermal vasculature; assay: In vivo meningococcal infection of mice engrafted with human skin

| SMILES | degradation of the basement membrane [1] | type IV pili expressed on bacterial surface [2] | surface expression of type IV pili of PilT mutant [3] | adhesion to and colony formation at the endothelial cell surface [4] | PECAM-1 recruitment at bacterial adhesion sites [5] | bacterial colonization [5] | colonization of the human dermal vasculature [6] | incidence of vascular alteration [6] | signs of intravascular coagulation [6] | hallmark of vascular inflammation ([6]; alone or in combination with cefotaxime) |
| --- | --- | --- | --- | --- | --- | --- | --- | --- | --- | --- |
| CN[C@@H]1[C@@H](O)C(O[C@@H]2[C@@H](O)[C@H](O[C@H]3O[C@H]([C@@H](C)NC)CC[C@H]3N)[C@@H](N)C[C@H]2N)OC[C@]1(C)O (stereo partly drawn) [Gentamicin, (3R,4R,5R)-2-{[(1S,2S,3R,4S,6R)-4,6-diamino-3-{[(2R,3R,6S)-3-amino-6-[(1R)-1-(methylamino)ethyl]oxan-2-yl]oxy}-2-hydroxycyclohexyl]oxy}-5-methyl-4-(methylamino)oxane-3,5-diol] | about 20% |  |  |  |  |  |  |  |  |  |
| CN1CCN(CCCN2c3ccccc3Sc3ccc(C(F)(F)F)cc32)CC1 [Trifluoperazine] |  | no longer observed | did not affect | did no longer adhere to and/or form bacterial colony | prevented PECAM-1 recruitment | did not affect bacterial colonization | prevents the massive colonization | reduces incidence of vascular alteration | reduces the signs of intravascular coagulation | drastically reduced |
